Patent publication US20240301319A1, “PERFUMING COMPOSITIONS” (FIRMNICH SA, priority 2017, published 2024)
Where a name gives a salt, the structure may show the parent alone.

Tests used:
[1] = Volatility of perfuming compounds (Tables 4 to 10), with top/middle/bottom note type; assay type: physicochemical
Outline: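 Note type follows from air volatility (μg/l): bottom 49–0.1, middle 99–50, top 70,000–100. Compounds are listed within watery, green, fruity, citrus, sweet, gourmand and woody families.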

[2] = Odor threshold and odor value of perfuming compounds (Tables 4 to 10)
[3] = Table 6, perfuming compounds having a fruity note
[4] = Table 6, perfuming compounds having a fruity note, note type by volatility
[5] = Table 7, citrus note, top, middle or bottom note
[6] = Table 7, citrus note, equals volatility divided by odor threshold
[7] = note type (Top/Middle/Bottom) by volatility, perfuming compounds having a green note
[8] = perfuming compounds having a green note
[9] = Table 9, perfuming compounds having a gourmand note, note type by volatility
[10] = Table 8, perfuming compounds having a sweet note
[11] = Table 8, perfuming compounds having a sweet note, note type by volatility
[12] = Table 4, watery note, top, middle or bottom note
[13] = Table 4, watery note, equals volatility divided by odor threshold

CCCCCCCOC(C)=O [heptyl acetate]
Volatility [1, 3]: 2814.34 μg/l air | Type [1, 4]: TOP (perfuming compounds having a volatility ranging from 70,000 to 100 μg/l in air are referred to as “top notes”) | Volatility (μg/l air) ([1]; Table 7, citrus note): 2814.34 μg/l air | Type [1, 5]: Top | Odor Threshold (μg/l air) ([2]; Table 7, citrus note): 1.32E−01 μg/l air | Odor Value [2, 6]: 2.14E+04

CC/C=C\CCOC=O [(Z)-3-HEXENYL FORMATE]
Volatility [1, 3]: 9873.53 μg/l air | Type [1, 4]: TOP (perfuming compounds having a volatility ranging from 70,000 to 100 μg/l in air are referred to as “top notes”) | Type [1, 7]: Top | Volatility (μg/l air) [1, 8]: 9873.53 μg/l air | Odor Threshold (μg/l air) [2, 8]: 2.11E−03 μg/l air

CC(CC=O)CC(C)(C)C (racemic) [(+−)-3,5,5-TRIMETHYLHEXANAL]
Type [1, 7]: Top | Volatility (μg/l air) [1, 8]: 12045.92 μg/l air | Odor Threshold (μg/l air) [2, 8]: 9.37E−03 μg/l air

O=C1CCC2(CCCCC2)O1 [1-oxaspiro[4.5]decan-2-one]
Volatility ([1]; Table 9, gourmand note): 62.86 μg/l air | Type [1, 9]: Middle | Odor Threshold ([2]; Table 9, gourmand note): 2.90E−04 μg/l air

COc1ccc(C(C)=O)cc1 [1-(4-METHOXYPHENYL)-1-ETHANONE″]
Type [1, 7]: Middle | Volatility (μg/l air) [1, 8]: 50.21 μg/l air | Odor Threshold (μg/l air) [2, 8]: 1.41E−04 μg/l air

CC(=O)OC(C)CC(C)(C)c1ccccc1 (racemic) [(+−)-1,3-DIMETHYL-3-PHENYLBUTYL ACETATE]
Volatility [1, 3]: 50.65 μg/l air | Type [1, 4]: Middle | Type [1, 7]: Middle | Volatility (μg/l air) [1, 8]: 50.65 μg/l air | Odor Threshold [2, 3]: 1.06E−02 μg/l air | Odor Value [2, 3]: 4.77E+03 | Odor Threshold (μg/l air) [2, 8]: 1.06E−02 μg/l air

CC(=O)OC/C=C/c1ccccc1 [(E)-3-PHENYL-2-PROPENYL ACETATE]
Volatility [1, 3]: 20.47 μg/l air | Type [1, 4]: Bottom | Odor Threshold [2, 3]: 1.87E−04 μg/l air | Odor Value [2, 3]: 1.10E+05

CCCCCC(=O)OC [METHYL HEXANOATE]
Volatility [1, 3]: 23345.90 μg/l air | Type [1, 4]: TOP (perfuming compounds having a volatility ranging from 70,000 to 100 μg/l in air are referred to as “top notes”) | Type [1, 7]: Top | Volatility (μg/l air) [1, 8]: 23345.90 μg/l air | Odor Threshold (μg/l air) [2, 8]: 8.43E−02 μg/l air

CC(C)CCCC(C)CCO (racemic)
Volatility (μg/l air) ([1]; Table 7, citrus note): 76.57 μg/l air | Type [1, 5]: Middle | Odor Threshold (μg/l air) ([2]; Table 7, citrus note): 4.59E−02 μg/l air | Odor Value [2, 6]: 1.67E+03

CC1=CCC(C(C)(C)O)CC1 (racemic) [(+−)-ALPHA-TERPINEOL]
Type ([1]; Table 10, perfuming compounds having a woody note, note type by volatility): Top | Volatility ([1]; Table 10, woody note): 172.78 μg/l air | Odor Threshold ([2]; Table 10, woody note): 1.03E−01 μg/l air

CCCCCCC1CCC(=O)O1 (racemic) [(+−)-4-DECANOLIDE]
Volatility [1, 3]: 10.49 μg/l air | Type [1, 4]: Bottom | Volatility [1, 10]: 10.49 μg/l air | Type [1, 11]: Bottom | Volatility ([1]; Table 9, gourmand note): 10.49 μg/l air | Type [1, 9]: Bottom | Odor Threshold [2, 3]: 1.61E−04 μg/l air | Odor Value [2, 3]: 6.51E+04 | Odor Threshold [2, 10]: 1.61E−04 μg/l air | Odor Value [2, 10]: 6.51E+04 | Odor Threshold ([2]; Table 9, gourmand note): 1.61E−04 μg/l air

C=CCCCCCCCCC=O [10-undecenal]
Volatility (μg/l air) ([1]; Table 4, watery note): 136.73 μg/l air | Type [1, 12]: TOP (perfuming compounds having a volatility ranging from 70,000 to 100 μg/l in air are referred to as “top notes”) | Odor Threshold (μg/l air) ([2]; Table 4, watery note): 3.15E−03 μg/l air | Odor Value [2, 13]: 4.34E+04

TRICYCLO[5.2.1.0(2,6)]DEC-3-EN-8-YL PROPANOATE (A) + TRICYCLO[5.2.1.0(2,6)]DEC-4-EN-8-YL PROPANOATE (B)
Volatility (μg/l air) ([1]; Table 7, citrus note): 35.82 μg/l air | Type [1, 5]: Bottom | Odor Threshold (μg/l air) ([2]; Table 7, citrus note): 2.44E−04 μg/l air | Odor Value [2, 6]: 1.47E+05

CC/C=C\CC1=C(C)CCC1=O
Volatility [1, 10]: 56.72 μg/l air | Type [1, 11]: Middle | Volatility ([1]; Table 9, gourmand note): 56.72 μg/l air | Type [1, 9]: Middle | Odor Threshold [2, 10]: 2.16E−04 μg/l air | Odor Value [2, 10]: 2.63E+05 | Odor Threshold ([2]; Table 9, gourmand note): 2.16E−04 μg/l air

CC(OC=O)C1CCCC(C)(C)C1 (centres unmarked) [1-(3,3-DIMETHYL-1-CYCLOHEXYL)ETHYL FORMATE]
Volatility (μg/l air) ([1]; Table 7, citrus note): 1129.46 μg/l air | Type [1, 5]: Top | Odor Threshold (μg/l air) ([2]; Table 7, citrus note): 2.05E−01 μg/l air | Odor Value [2, 6]: 5.50E+03

COc1ccc(CC(C)C=O)cc1 (racemic) [(+−)-3-(4-methoxyphenyl)-2-methylpropanal]
Volatility (μg/l air) ([1]; Table 4, watery note): 18.99 μg/l air | Type [1, 12]: bottom (perfuming compounds having a volatility ranging from 49 to 0.1 μg/l in air are referred to as “bottom notes”) | Type [1, 7]: Bottom | Volatility (μg/l air) [1, 8]: 18.99 μg/l air | Odor Threshold (μg/l air) ([2]; Table 4, watery note): 9.79E−03 μg/l air | Odor Value [2, 13]: 1.94E+03 | Odor Threshold (μg/l air) [2, 8]: 9.79E−03 μg/l air

CCc1occc(=O)c1O [2-ETHYL-3-HYDROXY-4(4H)-PYRANONE]
Volatility [1, 3]: 48.86 μg/l air | Type [1, 4]: Bottom | Volatility [1, 10]: 48.86 μg/l air | Type [1, 11]: Bottom | Odor Threshold [2, 3]: 6.45E−05 μg/l air | Odor Value [2, 3]: 7.57E+05 | Odor Threshold [2, 10]: 6.45E−05 μg/l air | Odor Value [2, 10]: 7.57E+05

C=C/C=C/C=C\CCCCC
Type [1, 7]: Top | Volatility (μg/l air) [1, 8]: 1247.28 μg/l air | Odor Threshold (μg/l air) [2, 8]: 3.76E−05 μg/l air

CCCCCCCCOC(C)=O [octyl acetate]
Volatility [1, 3]: 666.51 μg/l air | Type [1, 4]: TOP (perfuming compounds having a volatility ranging from 70,000 to 100 μg/l in air are referred to as “top notes”) | Volatility (μg/l air) ([1]; Table 7, citrus note): 666.51 μg/l air | Type [1, 5]: Top | Odor Threshold (μg/l air) ([2]; Table 7, citrus note): 1.76E−01 μg/l air | Odor Value [2, 6]: 3.78E+03

CC(=O)OCCC(C)CCC=C(C)C (centres unmarked) [3,7-DIMETHYL-6-OCTENYL ACETATE]
Volatility [1, 3]: 128.72 μg/l air | Type [1, 4]: TOP (perfuming compounds having a volatility ranging from 70,000 to 100 μg/l in air are referred to as “top notes”) | Odor Threshold [2, 3]: 2.75E−02 μg/l air | Odor Value [2, 3]: 4.68E+03
